Experimental data as given in patent US20210038559A1, “CANNABINOIDS AND DERIVATIVES FOR PROMOTING IMMUNOGENICITY OF TUMOR AND INFECTED CELLS” (priority 2018, published 2021).

Columns and labels:
A9 tumors = assay: A9 tumor mouse model, intraperitoneal treatment; assay type: in vivo
Excerpt: FIG. 7A-7B. Number of live lymphocytes observed within the tumor of tumor bearing mice (n=8 for PBS negative control and Cannabigerol treatments, n=6 for TSA positive control). A9 tumors were present in mice for 7 days before intraperitoneal treatment, and mice were sacrificed 4-5 days after treatment. Cannabigerol upregulation of MHC-I expression attracts increased number of lymphocytes which can infiltrate the tumor.
To confirm the in vivo activity of cannabinoid compounds, a representative cannabinoid was tested in a representative animal model. A9 tumor cells were injected subcutaneously into mice at 8-10 weeks of age, and mice were treated 7 days later with either Cannabigerol, TSA, or Vehicle. 1×10^5 A9 cells were injected in a volume of 50 μL of PBS into the right flank of each mouse subcutaneously. Starting at day 7 after injection of the A9 tumor cells, intraperitoneal injections of Cannabigerol (Cayman Chemical Company) at 10 mg/kg, Trichostatin A (TSAX Sigma-Aldrich) at 0.5 mg/kg dissolved in 1% DMSO and PBS, or vehicle (0.2% DMSO, 5% Bovine Serum Albumin (BSA), in PBS) were administered daily to the animals. Cannabigerol was dissolved in 0.2% DMSO, 5% Bovine Serum Albumin, in PBS. Animals were weighed 3 times a week and during tumor measurements, and tumor measurements were begun upon appearance of the tumor, on […] of the trial. Tumor volume was determined using calipers to measure tumor dimensions. Mice were sacrificed at day 10, 11, and 12, as was dictated by subscribed humane endpoints, in which mice experienced tumor ulceration. Half of the tumors were removed from the mouse and immediately placed in digestion media (RPMI Medium 1640 (Gibco) with 10% FBS and Penicillin+Streptomycin (P+S), with the addition of 10% collagenase hyaluronidase, 15% DNAse I (Stemcell)). Tumors were chopped in 1 mL of digestion media and placed at a temperature of 35° C. for 30 minutes, before being passed through a 100 micron cell strainer (Falcon). […]

MHC class I, A9 cells = assay type: cell-based, mouse; settings: 48 hours
Procedure: FIG. 6. Cannabigerol treatment of A9 cells for 48 hours at various doses increases MHC class I protein expression, as determined by flow cytometry. […] IFN γ treatment was at 5.832×10^−6 in two mL of media.
The effect of cannabigerol on MHC class I in A9 cancer cells were determined as follows. A9 cells (1×10^6) were plated onto a 6 well plate (Corning) in two mL of media. A9 cells were treated after 24 hours at various concentrations of Cannabigerol, 5.832×10^4 nM IFN gamma or DMSO vehicle for 48 hours. Cells were then harvested from the plate as per protocol and half of the cells were checked for MHC class I expression levels using flow cytometry. The Anti-mouse H2 KB APC antibody (Biolegend) was used at 1:200 in FACS buffer (2% FBS in PBS).

[1] = tested on: MHC class I expression, mouse Lewis lung carcinoma cell line A9; assay: MHC class I expression in mouse A9 Lewis lung carcinoma cells, 24 hours, flow cytometry; assay type: cell-based; settings: 21 μM, relative to the DMSO control
Procedure: FIG. 1A-1B. Cannabigerol stimulates MHC class I expression in the mouse A9 Lewis lung carcinoma (FIG. 1A) and the human COLO 205 colorectal carcinoma (FIG. 1B) cell lines. Cells were treated for 24 hours with 21.2 μM (A) or 25 and 50 μM (FIG. 1B) cannabigerol.
Cannabigerol, a representative cannabinoid, was tested for its ability to also stimulate MHC class I expression in mammalian cancer cell lines. The mouse Lewis lung carcinoma cell line, A9, was treated with 21 μM of cannabigerol for 24 hours prior to flow cytometric analysis of cell surface expression of MHC class I expression levels using the MHC class I antibody W6/32 (Thermo Fisher). Control conditions included the vehicle, dimethyl sulfoxide (DMSO, 1%) alone, and 100 ng/ml of trichostatin A (TSA), a histone deacetylase inhibitor and known inducer of MHC class I expression in mammalian cells. […] The positive control, TSA, stimulated expression by 2.4-fold.

[2] = 10 mg/kg intraperitoneal daily from day 7, versus Vehicle treated group

CCCCCc1cc(O)c(C/C=C(\C)CCC=C(C)C)c(O)c1 [Example 1, 2-[(2E)-3,7-dimethyl-2,6-octadien-1-yl]-5-pentyl-1,3-benzenediol]
absolute numbers of lymphocytes in tumors (A9 tumors; 10 mg/kg intraperitoneal daily from day 7, relative to vehicle treated tumors): Much higher
Mouse weight (A9 tumors; [2]): similar
tumor volume (A9 tumors; [2]): similar
upregulation of class I MHC (MHC class I, A9 cells; 0.0275 μM): less upregulation
class I MHC expression (MHC class I, A9 cells; 0.055 μM, relative to vehicle (DMSO), p value <0.0001, one-way ANOVA): significant increase
cell death [1]: limited cell death
increase in MHC class I expression [1]: 1.8 fold
